# Data reported in patent US8080529B2, “Macrolides with anti-inflammatory activity” (Glaxo Group Limited, priority 2005, dated 2011).
# Like-named read-outs stand apart in the source and are kept apart here.
# Experiments:
# Assay type in all cases: cell-based
# TNF-α = assay: Inhibition of TNF-α production by stimulated human peripheral blood leukocytes in vitro; details: Homo sapiens, Leukocyte, read-out: Percentage of inhibition of TNF-α production
# Method in brief: (§1)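 Compound at 10 or 50 μM, given 2 h ahead of an overnight LPS, PMA or zymosan challenge, was tested on human PBL in RPMI with 10% FCS at 37 °C. Sandwich ELISA quantified supernatant cytokine.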
# IL-1α = assay: Inhibition of IL-1 production by stimulated human peripheral blood leukocytes in vitro; details: Homo sapiens, Leukocyte, read-out: Percentage of inhibition of IL-1α production
# IL-6 = assay: Inhibition of IL-6 production by stimulated human peripheral blood leukocytes in vitro; details: Homo sapiens, Leukocyte, read-out: Percentage of inhibition of IL-6 production
# Method in brief: as §1
# IL-8 = assay: Inhibition of IL-8 production by stimulated human peripheral blood leukocytes in vitro; details: Homo sapiens, Leukocyte, read-out: Percentage of inhibition of IL-8 production
# Method in brief: as §1
# Hep G2 = assay: Cytotoxicity assay (MTT), Hep G2 cell line; details: 24 h
# Procedure: (§2) To determine whether the anti-inflammatory activity of the test compounds was due to observed inhibition of cytokine production and inhibition of proliferation in vitro, and was not a consequence of cellular cytotoxicity, measurement of succinate dehydrogenase activity in living cells was performed. Cells were cultured for 24 h in RPM medium as described above at 37° C. the presence of the test compounds at concentrations of 50 μM and 12.5 μM. MTT [3-(4,5-dimethylthiazole-2-yl)-2,5-diphenyl tetrazolium bromide] (Promega, USA), a detection reagent, was then added and the cultures were incubated for 0.5-2 h. The amount of MTT-Formazan produced was determined using a spectrophotometer at 490 nm (Mosmann, J. Immunol. Methods, 1983, 65: 55-63).
# (§3) The percentage of inhibition of cell growth was calculated using the following formula: % inhibition of cell growth=[…].
# A549 = assay: Cytotoxicity assay (MTT), A549 cell line; details: 24 h
# Procedure: as §2, §3
SMILES,inhibition at 10 µM (TNF-α; LPS-stimulated PBL),inhibition at 10 µM (TNF-α; PMA-stimulated PBL),inhibition at 10 µM (TNF-α; zymosan-stimulated PBL),inhibition at 50 µM (TNF-α; LPS-stimulated PBL),inhibition at 50 µM (TNF-α; PMA-stimulated PBL),inhibition at 50 µM (TNF-α; zymosan-stimulated PBL),inhibition at 10 µM (IL-1α; LPS-stimulated PBL),inhibition at 10 µM (IL-1α; PMA-stimulated PBL),inhibition at 10 µM (IL-1α; zymosan-stimulated PBL),inhibition at 50 µM (IL-1α; LPS-stimulated PBL),inhibition at 50 µM (IL-1α; PMA-stimulated PBL),inhibition at 50 µM (IL-1α; zymosan-stimulated PBL),inhibition at 10 µM (IL-6; LPS-stimulated PBL),inhibition at 10 µM (IL-6; PMA-stimulated PBL),inhibition at 10 µM (IL-6; zymosan-stimulated PBL),inhibition at 50 µM (IL-6; LPS-stimulated PBL),inhibition at 50 µM (IL-6; PMA-stimulated PBL),inhibition at 50 µM (IL-6; zymosan-stimulated PBL),inhibition at 10 µM (IL-8; LPS-stimulated PBL),inhibition at 10 µM (IL-8; PMA-stimulated PBL),other results
CC[C@H]1OC(=O)[C@H](C)[C@@H](O[C@H]2C[C@@](C)(OC)[C@@H](OC(=O)CCN3CCCCCC3)[C@H](C)O2)[C@H](C)[C@@H](O[C@@H]2O[C@H](C)C[C@H](N(C)C)[C@H]2O)[C@](C)(OC)C[C@@H](C)C(=O)N[C@H](C)[C@@H](O)[C@]1(C)O [Example 41],39%,30%,27%,95%,70%,99%,79%,52%,80%,84%,100%,100%,25%,59%,36%,92%,79%,100%,29%,10%,inhibition at 10 µM (IL-8; zymosan-stimulated PBL): 19%; inhibition at 50 µM (IL-8; LPS-stimulated PBL): 87%; inhibition at 50 µM (IL-8; PMA-stimulated PBL): 42%; inhibition at 50 µM (IL-8; zymosan-stimulated PBL): 63%; Percentage of inhibition of cell growth (Hep G2; 12.5 μM): 7%; Percentage of inhibition of cell growth (Hep G2; 50 μM): 3%; Percentage of inhibition of cell growth (A549; 12.5 μM): 1%; Percentage of inhibition of cell growth (A549; 50 μM): 0%
"CC[C@H]1OC(=O)[C@H](C)[C@@H](OC2C[C@@](C)(OC)[C@@H](OC(=O)CCN3CCNCC3)[C@H](C)O2)[C@H](C)[C@@H](OC2O[C@H](C)C[C@H](N(C)C)[C@H]2O)[C@](C)(OC)C[C@@H](C)C(=O)[C@H](C)[C@@H](O)[C@]1(C)O (stereo partly drawn) [Example 50, 4″-O-(3-piperazin-1-yl-propionyl)-6-O-methylerithromycin A]",10%,0%,36%,100%,100%,98%,19%,0%,81%,23%,44%,69%,0%,0%,52%,54%,23%,96%,0%,0%,inhibition at 10 µM (IL-8; zymosan-stimulated PBL): 0%; inhibition at 50 µM (IL-8; LPS-stimulated PBL): 61%; inhibition at 50 µM (IL-8; PMA-stimulated PBL): 100%; inhibition at 50 µM (IL-8; zymosan-stimulated PBL): 70%; Percentage of inhibition of cell growth (Hep G2; 12.5 μM): 0%; Percentage of inhibition of cell growth (Hep G2; 50 μM): 8%; Percentage of inhibition of cell growth (A549; 12.5 μM): 10%; Percentage of inhibition of cell growth (A549; 50 μM): 10%
"C=CC(=O)OC1[C@H](C)O[C@@H](O[C@H]2[C@H](C)[C@@H](O[C@@H]3O[C@H](C)C[C@H](NC)[C@H]3O)[C@](C)(OC)C[C@@H](C)C(=O)N[C@H](C)[C@@H](O)[C@](C)(O)[C@@H](CC)OC(=O)[C@@H]2C)C[C@@]1(C)OC (stereo partly drawn) [Example 53, 3′-N-Demethyl-4″-O-acryloyl-6-O-methyl-9a-aza-9a-homoerythromycin A]",28%,82%,64%,100%,100%,100%,83%,92%,92%,95%,99%,100%,20%,66%,68%,99%,95%,100%,9%,30%,inhibition at 10 µM (IL-8; zymosan-stimulated PBL): 19%; inhibition at 50 µM (IL-8; LPS-stimulated PBL): 100%; inhibition at 50 µM (IL-8; PMA-stimulated PBL): 63%; inhibition at 50 µM (IL-8; zymosan-stimulated PBL): 92%; Percentage of inhibition of cell growth (Hep G2; 12.5 μM): 0%; Percentage of inhibition of cell growth (Hep G2; 50 μM): 2%; Percentage of inhibition of cell growth (A549; 12.5 μM): 9%; Percentage of inhibition of cell growth (A549; 50 μM): 12%
